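Following 48 hours of exposure in 96-well plates, responses at five concentrations were used to interpolate endpoints linearly. At the GI50, growth is halved. TGI: total growth inhibition.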
How the values were obtained:
Test in all cases: inhibition of tumour cell growth, NCI panel, 48 h
CAKI-1 renal = tested on: CAKI-1 renal
HCC-2998 colon = tested on: HCC-2998 colon
HS 578T breast = tested on: HS 578T breast
LOX IMVI melanoma = tested on: LOX IMVI melanoma
MDA-MB-435 = tested on: MDA-MB-435
OVCAR-3 ovarian = tested on: OVCAR-3 ovarian
SF-268 CNS = tested on: SF-268 CNS
SK-MEL-2 melanoma = tested on: SK-MEL-2 melanoma
SK-OV-3 ovarian = tested on: SK-OV-3 ovarian
T-47D breast = tested on: T-47D breast

SMILES	GI50 (CAKI-1 renal)	TGI (CAKI-1 renal)	GI50 (HCC-2998 colon)	TGI (HCC-2998 colon)	GI50 (HS 578T breast)	TGI (HS 578T breast)	GI50 (LOX IMVI melanoma)	TGI (LOX IMVI melanoma)	GI50 (MDA-MB-435)	TGI (MDA-MB-435)	GI50 (OVCAR-3 ovarian)	TGI (OVCAR-3 ovarian)	GI50 (SF-268 CNS)	TGI (SF-268 CNS)	GI50 (SK-MEL-2 melanoma)	TGI (SK-MEL-2 melanoma)	GI50 (SK-OV-3 ovarian)	TGI (SK-OV-3 ovarian)	GI50 (T-47D breast)	TGI (T-47D breast)
C[C@]12C3CC[C@@]4(CO)C[C@]3(CCC1[C@](C)(C(=O)O)CC[C@@H]2O)CC4=O (stereo not given in full)	> 100 µM	> 100 µM	> 100 µM	> 100 µM	> 100 µM	> 100 µM	> 100 µM	> 100 µM	> 100 µM	> 100 µM	> 100 µM	> 100 µM	> 100 µM	> 100 µM	> 100 µM	> 100 µM	> 100 µM	> 100 µM	> 100 µM	> 100 µM
O=C(CNc1ncco1)Nc1ccc(S(=O)(=O)c2ccc(NC(=O)CNc3ncco3)cc2)cc1	1.56 µM	3.28 µM	3.44 µM	16.4 µM	14.3 µM	> 100 µM	0.308 µM	1.92 µM	2.08 µM	7.26 µM	1.63 µM	3.71 µM	1.53 µM	4.54 µM	2.49 µM	5.65 µM	10.5 µM	24.1 µM	1.87 µM	4.38 µM
COc1cc(NCc2ccccc2O)c2ncccc2c1	6.02 µM	34.1 µM	42.6 µM	> 100 µM	24.2 µM	> 100 µM	17.1 µM	67.3 µM	11.6 µM	37.9 µM	20.6 µM	84.5 µM	22.5 µM	> 100 µM	18.1 µM	50.3 µM	20.2 µM	50 µM	20.4 µM	> 100 µM
CCCCCCC#CC#Cc1cccc(=O)o1	3.4 µM	9.2 µM	2.52 µM	6.12 µM	1.99 µM	6.49 µM	0.122 µM	0.43 µM	1.39 µM	3.28 µM	2.04 µM	4.8 µM	2.69 µM	11.9 µM	9.27 µM	> 100 µM	23.8 µM	> 70 µM	16.6 µM	57.2 µM

Source: PubChem BioAssay (NCI)
